Measurements published in US11419902B2, “Compositions comprising bacterial strains” (4D Pharma Research Limited, priority 2018, dated 2022).

Key:
[1] = test system: MAP2; experiment: MAP2 expression in SH-SY5Y cells (qPCR, immunostaining, immunoblotting); assay type: cell-based; settings: undifferentiated SH-SY5Y cells, 10% bacterial supernatant, vs untreated cells
Protocol: SH-SY5Y were plated in 10 cm petri dishes a density of 2×10^6 cells. After 24 h cells were treated in differentiation medium (growth medium containing 1% FBS without RA) with 10% bacteria supernatants or YCFA+, 10 uM RA, 200 uM hexanoic acid or 200 uM valproic acid, for 17 hrs. There after representative images were taken using phase contrast EVOS XL core microscope at 40×10.65 magnification. Cells were collected, and total RNA was isolated according to RNeasy mini kit protocol (Qiagen). cDNAs were made using the high capacity cDNA reverse transcription kit (Applied Biosystems). Gene expression was measured using qPCR. GAPDH was used as internal control. Fold change was calculated according to the 2^(−ΔΔct) method.
Cells were seeded onto 8-well chamber slides (Marienfeld Laboratory Glassware) at 5×10^4 cells/well overnight and were treated with 10% bacterial supernatant for 24 h. […]
SH-SY5Y cells cultured under the indicated conditions described above, treated with MRx0029 for 24 h and then lysed in RIPA buffer containing cocktail of protease inhibitors (Roche Diagnostics, UK). […] The blots were then incubated with the appropriate horseradish peroxidase (HRP)-conjugated secondary antibody, and proteins were detected by chemiluminescence detection kit (Pierce Biotechnology, Rockford, Ill.). […]

[2] = test system: PBMCs; experiment: Basic cell phenotyping on PBMCs from healthy donors (flow cytometry); assay type: cell-based
Protocol: Frozen healthy human PBMCs were purchased from Stem Cells Technologies (Cambridge UK). Briefly cells were thaw and left to rest overnight in full growth media (RPMI 1640 with 10% FBS, 2 mM L. Glutamine, 55 μM 2-Mercapoethanol and 100 U/ml penicillin, 100 μg/ml streptomycin) in CO2 incubator at 37° C. For the experiment cells were plated at a density of 750,000 Cell/well in 48 well plates and treated in full growth media with 10% bacteria supernatants in the presence or absence of 1 ng/ml LPS. Cell culture media was added to untreated wells. Cells were left to rest for 72 h, thereafter cell free supernatants were collected and spun down for 3 minutes at 10,000 g at 4° C. Samples were stored at −80° C. for cytokine analysis.
1.5×10^6 cells per sample were stained with viability fixable dye (Miltenyi) to discriminate between live and dead cells for 10 min at RT. Afterwards the cells were stained with the cocktail of antibodies listed below (Miltenyi) for basic immunophenotyping (CD3/CD4/CD8/CD25/CD127 and CD19) and incubated for 10 min at RT.
Experiments were carried out to measure the percentage of the following cell populations: • CD4+CD3+ cells (markers of CD4 T-helper cells) • CD4+CD25+ cells (markers of CD4+ activated cells) • CD25++[…] cells out of the CD4+ cell population (markers of Tregs cells) • CD8+CD3+ cells (markers of cytotoxic T cells) • CD25+CD8+ cells (markers of CD8+ activated cells) • CD19+CD3− cells (markers of B cells).
The ratio of CD8+/Tregs and the ratio of activated CD8/Treg cells were determined.
Flow cytometry analysis of different cell populations 1.5×10^6 cells per sample were stained with viability fixable dye (Miltenyi) to discriminate between live and dead cells for 10 min at RT. Afterwards the cells were stained with the cocktail of antibodies listed below (Miltenyi) for basic immunophenotyping (CD3/CD4/CD8/CD25/CD127 and CD19) and incubated for 10 min at RT. Cells were then washed and resuspended in PBS and immediately analysed using a FACS Aria II equipped with Blue (488 nm), Red (633 nm) and Violet (405 nm) lasers. FMOs were included throughout all the experiments. For the analysis Flowjo version 10.4.2 software (FlowJo, LLC) was used.

Substance: Megasphaera massiliensis MRx0029
- expression of MAP2 [1]: significantly increased the expression of MAP2
- percentage of B cells ([2]; 10% bacteria supernatant, 72 h): did not significantly change
- percentage of CD4+ activated cells ([2]; 10% bacteria supernatant, 72 h): did not significantly change
- percentage of CD4 T-helper cells ([2]; 10% bacteria supernatant, 72 h): did not significantly change
- percentage of CD8+ activated cells ([2]; 10% bacteria supernatant, 72 h): did not significantly change
- percentage of CD25++CD17− cells (Tregs) ([2]; 10% bacteria supernatant, 72 h): selectively reduced the percentage of Tregs
- percentage of cytotoxic T cells ([2]; 10% bacteria supernatant, 72 h): did not significantly change
- ratio of CD8+/Tregs ([2]; vs untreated cells): increased the ratio of CD8+/Tregs
- ratio of activated CD8/Treg cells ([2]; vs untreated cells): increased
